From US20040147505A1, “Novel heteroaryl-diazabicyclo alkanes as cns-modulators” (priority 2001, published 2004)
Structures can show the parent of a compound that is named as a salt.

Assays:
serotonin transporter = target: T1, serotonin transporter (Rattus norvegicus, UniProt P31652); assay: In vitro inhibition of 3H-5-hydroxytryptamine (3H-5-HT, serotonin) uptake in cortical synaptosomes; format: biochemical; details: cortical synaptosomes from male Wistar rats; 3H-5-HT 1 nM; 30 min at 37° C.
T1 construct: Cerebral cortices from male Wistar rats (150-200 g) are homogenized; from tissue; host or cells: rat cerebral cortex synaptosomes (P2 pellet)
T1 sequence (P31652 whole entry): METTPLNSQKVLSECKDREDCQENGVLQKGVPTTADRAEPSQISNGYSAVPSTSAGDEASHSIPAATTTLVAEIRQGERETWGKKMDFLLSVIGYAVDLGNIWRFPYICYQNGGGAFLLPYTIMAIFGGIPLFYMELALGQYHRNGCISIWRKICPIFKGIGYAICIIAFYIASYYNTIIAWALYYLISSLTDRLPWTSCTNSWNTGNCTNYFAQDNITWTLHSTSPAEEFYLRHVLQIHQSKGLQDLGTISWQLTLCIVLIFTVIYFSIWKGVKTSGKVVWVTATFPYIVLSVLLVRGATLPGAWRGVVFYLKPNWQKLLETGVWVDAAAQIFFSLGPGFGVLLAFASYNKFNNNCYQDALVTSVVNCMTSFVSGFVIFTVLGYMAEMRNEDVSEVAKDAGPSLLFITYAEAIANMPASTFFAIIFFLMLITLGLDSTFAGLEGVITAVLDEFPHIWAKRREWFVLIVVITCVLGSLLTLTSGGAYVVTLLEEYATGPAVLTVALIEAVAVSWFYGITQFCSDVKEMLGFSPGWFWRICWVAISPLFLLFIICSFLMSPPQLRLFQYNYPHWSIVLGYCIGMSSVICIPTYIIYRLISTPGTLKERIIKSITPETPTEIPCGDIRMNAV
Experimental: The activity of the serotonin transporter integral protein can be measured in vitro by synaptosomal uptake of ^3H-5-hydroxytryptamine.
Preparations are performed at 0-4° C. unless otherwise indicated. […] Monoamine oxidase activity will be inhibited in the presence of pargyline. The homogenate is centrifuged at 1000×g for 10 min. The resulting supernatant is then centrifuged at 27,000×g for 50 min and the supernatant is discarded.
Non-specific uptake is determined using citalopram (1 μM, final concentration). After incubation the samples are poured directly onto Whatman GF/C glass fibre filters under suction. The filters are then washed three times with 5 ml of ice-cold 0.9% (w/v) NaCl solution. The amount of radioactivity on the filters is determined by conventional liquid scintillation counting. Specific uptake is calculated as the difference between total uptake and non-specific uptake.

[1] = target: T2, nAChRs comprised of α4 and β2 subunits (Rattus norvegicus, UniProt P09483+P12390); assay: In vitro inhibition of 3H-cytisine binding; details: cerebral cortex homogenate from male Wistar rats; 3H-cytisine 1 nM; 90 min at 2° C.
T2 construct: Cerebral corticies from male Wistar rats (150-250 g) are homogenized; from tissue; host or cells: rat cerebral cortex membrane homogenate
T2 sequence (P12390 25-500): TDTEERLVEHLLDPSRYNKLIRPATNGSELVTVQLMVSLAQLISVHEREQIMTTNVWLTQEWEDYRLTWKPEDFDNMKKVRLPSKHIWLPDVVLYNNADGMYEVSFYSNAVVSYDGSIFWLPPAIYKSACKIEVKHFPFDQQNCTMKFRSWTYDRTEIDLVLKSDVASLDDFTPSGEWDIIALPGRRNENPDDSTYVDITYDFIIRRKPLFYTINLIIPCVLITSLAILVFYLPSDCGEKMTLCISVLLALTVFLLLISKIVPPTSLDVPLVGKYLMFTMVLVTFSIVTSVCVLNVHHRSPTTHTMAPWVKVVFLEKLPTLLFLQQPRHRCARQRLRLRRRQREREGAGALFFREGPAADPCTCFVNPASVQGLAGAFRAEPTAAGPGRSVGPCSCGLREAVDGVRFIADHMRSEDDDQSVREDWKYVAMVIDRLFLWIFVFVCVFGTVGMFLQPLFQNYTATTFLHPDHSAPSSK
T2 sequence (P09483 31-630): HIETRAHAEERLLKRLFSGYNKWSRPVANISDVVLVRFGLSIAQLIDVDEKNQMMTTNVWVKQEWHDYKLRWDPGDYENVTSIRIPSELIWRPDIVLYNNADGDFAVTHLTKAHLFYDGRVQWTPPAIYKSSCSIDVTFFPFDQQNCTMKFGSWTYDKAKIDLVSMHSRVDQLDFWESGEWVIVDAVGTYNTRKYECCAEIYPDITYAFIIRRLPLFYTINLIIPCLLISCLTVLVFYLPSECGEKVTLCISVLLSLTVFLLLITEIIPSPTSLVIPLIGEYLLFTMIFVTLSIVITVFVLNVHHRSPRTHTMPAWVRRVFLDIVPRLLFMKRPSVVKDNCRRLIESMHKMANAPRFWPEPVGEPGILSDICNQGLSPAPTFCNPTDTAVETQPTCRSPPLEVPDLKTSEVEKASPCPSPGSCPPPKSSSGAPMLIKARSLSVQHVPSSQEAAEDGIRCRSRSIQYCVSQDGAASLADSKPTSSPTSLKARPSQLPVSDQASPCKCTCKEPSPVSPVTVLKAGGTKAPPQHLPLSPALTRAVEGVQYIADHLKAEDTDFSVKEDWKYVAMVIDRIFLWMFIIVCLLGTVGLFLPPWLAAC
Experimental: The predominant subtype with high affinity for nicotine is comprised of α4 and β2 subunits. nAChRs of the latter type can selectively be labelled by the nicotine agonist ^3H-cytisine.
Cerebral corticies from male Wistar rats (150-250 g) are homogenized for 20 sec in 15 ml Tris, HCl (50 mM, pH 7.4) containing 120 mM NaCl, 5 mM KCl, 1 mM MgCl2 and 2.5 mM CaCl2 using an Ultra-Turrax homogenizer. The homogenate is centrifuged at 27,000×g for 10 min. The supernatant is discarded and the pellet is resuspended in fresh buffer and centrifuged a second time. The final pellet is resuspended in fresh buffer (35 ml per g of original tissue) and used for binding assays.
Aliquots of 500 μl homogenate are added to 25 μl of test solution and 25 μl of ^3H-cytisine (1 nM, final concentration), mixed and incubated for 90 min at 2° C. Non-specific binding is determined using (−)-nicotine (100 μM, final concentration). After incubation the samples are added 5 ml of ice-cold buffer and poured directly onto Whatman GF/C glass fibre filters under suction and immediately washed with 2×5 ml ice-cold buffer. The amount of radioactivity on the filters is determined by conventional liquid scintillation counting. Specific binding is total binding minus non-specific binding.

| melting point | SMILES | other results |
| --- | --- | --- |
| 168 to 172 °C | O=[N+]([O-])c1ccc2nc(N3CC4CC(CN(Cc5ccccc5)C4)C3)ccc2c1 (as salt: fumaric acid salt) [Compound C6, 3-Benzyl-7-(6-nitro-2-quinolinyl)-3,7-diazabicyclo-[3.3.1]-nonane] | – |
| – | c1ccc(CN2CC3CC(C2)CN(c2ccc4ccccc4n2)C3)cc1 [Compound C3, 3-Benzyl-7-(2-quinolinyl)-3,7-diazabicyclo-[3.3.1]-nonane] | IC50 (serotonin transporter): 22 nM |
| 183.1 to 183.3 °C | Clc1cncc(N2CC3CC(CN(Cc4ccccc4)C3)C2)n1 (as salt: fumaric acid salt) | – |
| – | Clc1cncc(N2CC3CNCC(C3)C2)n1 [Compound F2, 3-H-7-(6-Chloro-2-pyrazinyl)-3,7-diazabicyclo-[3.3.1]-nonane] | IC50 [1]: 3.4 nM |
| 183.5 to 187.6 °C | C=CCN1CC2CC(C1)CN(c1ccc(-c3ccccc3)nn1)C2 (as salt: fumaric acid salt) | – |
| – | O=[N+]([O-])c1ccc2nc(N3CC4CC(CN(Cc5ccccc5)C4)C3)ccc2c1 [Compound C6, 3-Benzyl-7-(6-nitro-2-quinolinyl)-3,7-diazabicyclo-[3.3.1]-nonane] | IC50 (serotonin transporter): 5.7 nM |
| – | Clc1ccc(N2CC3CNCC(C3)C2)nn1 [Compound F1, 3-H-7-(6-Chloro-3-pyridazinyl)-3,7-diazabicyclo-[3.3.1]-nonane] | IC50 [1]: 3 nM |
| 204 to 205 °C | Clc1ccc(N2CC3CC(CN(Cc4ccccc4)C3)C2)nn1 (as salt: fumaric acid salt) | – |
| 213.9 to 220.8 °C | CN1CC2CC(C1)CN(c1ccc(-c3ccccc3)nn1)C2 (as salt: fumaric acid salt) | – |

| SMILES | melting point | other results |
| --- | --- | --- |
| c1ccc(CN2CC3CC(C2)CN(c2ccc4ccccc4n2)C3)cc1 (as salt: fumaric acid salt) [Compound C3, 3-Benzyl-7-(2-quinolinyl)-3,7-diazabicyclo-[3.3.1]-nonane] | 56.1 to 56.8 °C | – |
| Clc1ccc(N2CC3CNCC(C3)C2)nn1 (as salt: fumaric acid salt) [Compound F1, 3-H-7-(6-Chloro-3-pyridazinyl)-3,7-diazabicyclo-[3.3.1]-nonane] | 195.5 to 196.5 °C | – |
| Clc1cncc(N2CC3CNCC(C3)C2)n1 (as salt: fumaric acid salt) [Compound F2, 3-H-7-(6-Chloro-2-pyrazinyl)-3,7-diazabicyclo-[3.3.1]-nonane] | 180.3 to 181.9 °C | – |
